ChEMBL document CHEMBL5331089, “Mucormycosis: A hidden mystery of fungal infection, possible diagnosis, treatment and development of new therapeutic agents” (Eur J Med Chem, 2023)
Converted amounts (≈) assume the structure as drawn.

Key:
Rhizopus arrhizus [1] = assay: Antifungal activity against Rhizopus oryzae clinical isolate assessed as fungal growth inhibition measured after 24 to 72 hrs by microtitre plate reader analysis; assay type: functional; conditions: time 24-72 hrs
Rhizomucor pusillus [2] = assay: Antifungal activity against Rhizomucor pusillus clinical isolate assessed as fungal growth inhibition measured after 48 hrs by microtitre plate reader analysis; assay type: functional
Rhizopus arrhizus [3] = assay: Antifungal activity against Rhizopus oryzae CBS 112.07 assessed as fungal growth inhibition measured after 48 hrs by microtitre plate reader assay; assay type: functional
[4] = Antifungal activity against Rhizopus microsporus NRRL 514 assessed as fungal growth inhibition measured after 48 hrs by microtitre plate reader assay; assay type: functional
Rhizomucor pusillus [5] = assay: Antifungal activity against Rhizomucor pusillus CN(M)231 assessed as fungal growth inhibition measured after 48 hrs by microtitre plate reader assay; assay type: functional
Rhizomucor miehei [6] = assay: Antifungal activity against Rhizomucor miehei CBS 360.92 assessed as fungal growth inhibition measured after 48 hrs by microtitre plate reader assay; assay type: functional
Lichtheimia corymbifera [7] = assay: Antifungal activity against Absidia corymbifera SZMC 2010 assessed as fungal growth inhibition measured after 48 hrs by microtitre plate reader assay; assay type: functional
[8] = test system: Syncephalastrum racemosum; assay: Antifungal activity against Syncephalastrum racemosum SZMC 2011 assessed as fungal growth inhibition measured after 48 hrs by microtitre plate reader assay; assay type: functional
Rhizopus arrhizus [9] = assay: Antifungal activity against Rhizopus oryzae CBS 146.90 assessed as fungal growth inhibition; assay type: functional
Rhizomucor pusillus [10] = assay: Antifungal activity against Rhizomucor pusillus ETH M4920 assessed as fungal growth inhibition; assay type: functional
Rhizopus arrhizus [11] = assay: Antifungal activity against Rhizopus oryzae clinical isolate assessed as fungal growth inhibition by checkerboard broth microdilution assay; assay type: functional
Rhizopus arrhizus [12] = assay: Antifungal activity against Rhizopus oryzae CBS 109939 assessed as fungal growth inhibition by checkerboard broth microdilution assay; assay type: functional
Rhizomucor miehei [13] = assay: Antifungal activity against Rhizomucor miehei CBS 360.92 assessed as fungal growth inhibition; assay type: functional
Mucor mucedo = assay: Antifungal activity against Mucor mucedo WRL CN(M) assessed as fungal growth inhibition; assay type: functional
Mucor racemosus = assay: Antifungal activity against Mucor racemosus WRL CN(M)304 assessed as fungal growth inhibition; assay type: functional
Mucor circinelloides [14] = assay: Antifungal activity against Mucor circinelloides MS 12 assessed as fungal growth inhibition; assay type: functional
Absidia glauca = assay: Antifungal activity against Absidia glauca SZMC 11072 assessed as fungal growth inhibition; assay type: functional
[15] = test system: Syncephalastrum racemosum; assay: Antifungal activity against Syncephalastrum racemosum assessed as fungal growth inhibition measured for 24 to 24 hrs by agar well diffusion assay; assay type: functional, organism-based; conditions: for MIC: time 24-24 hrs
[16] = test system: Syncephalastrum racemosum; assay: Antifungal activity against Syncephalastrum racemosum RCMB 016001 assessed as zone of inhibition measured after 24 hrs; assay type: functional
Mucor circinelloides [17] = assay: Antifungal activity against Mucor circinelloides assessed as fungal growth inhibition measured at 36 to 48 hrs; assay type: functional; conditions: time 36-48 hrs
Rhizomucor pusillus [18] = assay: Antifungal activity against Rhizomucor pusillus assessed as fungal growth inhibition measured at 36 to 48 hrs; assay type: functional; conditions: time 36-48 hrs
Rhizopus delemar = assay: Antifungal activity against Rhizopus delemar assessed as fungal growth inhibition; assay type: functional; conditions: read-out: MEC
Rhizopus arrhizus [19] = assay: Antifungal activity against Rhizopus oryzae assessed as fungal growth inhibition; assay type: functional; conditions: read-out: MEC
Lichtheimia corymbifera [20] = assay: Antifungal activity against Absidia corymbifera assessed as fungal growth inhibition; assay type: functional; conditions: read-out: MEC
Mucor circinelloides [21] = assay: Antifungal activity against Mucor circinelloides assessed as fungal growth inhibition; assay type: functional; conditions: read-out: MEC
Mucor indicus = assay: Antifungal activity against Mucor indicus assessed as fungal growth inhibition; assay type: functional; conditions: read-out: MEC

CC(C)n1c(/C=C/[C@H](O)C[C@H](O)CC(=O)O)c(-c2ccc(F)cc2)c2ccccc21
MIC (Rhizopus arrhizus [1]): 2 µg/mL (≈ 4.86 µM)
MIC (Rhizomucor pusillus [2]): 0.4 µg/mL (≈ 0.972 µM)
MIC (Rhizopus arrhizus [3]): 3.6 µg/mL (≈ 8.75 µM)
MIC90 [4]: 33 µg/mL (≈ 80.2 µM)
MIC (Rhizomucor pusillus [5]): 0.4 µg/mL (≈ 0.972 µM)
MIC90 (Rhizomucor miehei [6]): 3.6 µg/mL (≈ 8.75 µM)
MIC90 (Lichtheimia corymbifera [7]): 3.6 µg/mL (≈ 8.75 µM)
MIC [8]: 11 µg/mL (≈ 26.7 µM)
MIC (Rhizopus arrhizus [9]): 12.5 µg/mL (≈ 30.4 µM)
MIC (Rhizomucor pusillus [10]): 6.25 µg/mL (≈ 15.2 µM)
MIC (Rhizopus arrhizus [11]): 2 µg/mL
MIC (Rhizopus arrhizus [12]): 2 µg/mL
MIC (Rhizomucor miehei [13]): 3.12 µg/mL (≈ 7.59 µM)
MIC (Mucor mucedo): 6.25 µg/mL (≈ 15.2 µM)
MIC (Mucor racemosus): 25 µg/mL (≈ 60.8 µM)
MIC (Mucor circinelloides [14]): 4 µg/mL (≈ 9.72 µM)
MIC (Absidia glauca): 6.25 µg/mL (≈ 15.2 µM)

CCOC(=O)N1C/C(=C\c2ccc(OC)cc2)C(=O)[C@@]2(C1)[C@H](c1ccc(OC)cc1)[C@H]1CCCN1[C@]21C(=O)Nc2ccccc21
IC50 [15]: 11.3 µg/mL (≈ 18.6 µM)
MIC [15]: 0.98 µg/mL (≈ 1.61 µM)

CCOC(=O)N1C/C(=C\c2ccc(Cl)cc2)C(=O)[C@@]2(C1)[C@H](c1ccc(Cl)cc1)CN(C)[C@]21C(=O)Nc2ccccc21
inhibition zone (IZ) [16]: 39.46 mm
IC50 [15]: 16.4 µg/mL (≈ 27.7 µM)
MIC [15]: 1.95 µg/mL (≈ 3.3 µM)

CCOC(=O)N1C/C(=C\c2ccc([N+](=O)[O-])cc2)C(=O)[C@@]2(C1)[C@H](c1ccc([N+](=O)[O-])cc1)[C@H]1CCCN1[C@]21C(=O)Nc2ccccc21
inhibition zone (IZ) [16]: 39.46 mm
IC50 [15]: 10.6 µg/mL (≈ 16.7 µM)
MIC [15]: 0.49 µg/mL (≈ 0.768 µM)

CCOC(=O)N1C/C(=C\c2ccc(F)c(F)c2)C(=O)[C@@]2(C1)[C@H](c1ccc(F)c(F)c1)[C@H]1CCCN1[C@]21C(=O)Nc2ccccc21
IC50 [15]: 11.3 µg/mL (≈ 18.3 µM)
MIC [15]: 1.95 µg/mL (≈ 3.15 µM)

CCOC(=O)N1C/C(=C\c2cc(OC)c(OC)c(OC)c2)C(=O)[C@@]2(C1)[C@H](c1cc(OC)c(OC)c(OC)c1)[C@H]1CCCN1[C@]21C(=O)Nc2ccccc21
inhibition zone (IZ) [16]: 39.46 mm

Cc1ccc([C@H]2[C@@]3(SC(=O)NC3=O)C3CCCN3[C@@]23C(=O)Nc2ccccc23)cc1 (stereo partly specified)
inhibition zone (IZ) [16]: 19 mm

CCOC(=O)N1C/C(=C\c2cc(OC)c(OC)c(OC)c2)C(=O)[C@@]2(C1)[C@H](c1cc(OC)c(OC)c(OC)c1)CN(C)[C@]21C(=O)Nc2ccccc21
inhibition zone (IZ) [16]: 39.46 mm

O=C1NC(=O)[C@]2(S1)C1CCCN1[C@@]1(C(=O)Nc3ccccc31)[C@H]2c1ccccc1 (stereo partly specified)
inhibition zone (IZ) [16]: 14 mm

Cc1cc(N2CCN(c3ccc(C(=O)N[C@H]4CCCC[C@@H]4O)cc3)CC2)ccc1OC[C@@H]1CO[C@@](Cn2cncn2)(c2ccc(F)cc2F)C1
MIC (Mucor circinelloides [17]): 2 µg/mL (≈ 2.91 µM)
MIC (Rhizomucor pusillus [18]): 2 µg/mL (≈ 2.91 µM)

C[C@@H]1C[C@H]1/C=C/[C@@H]1C[C@H]1[C@@H]1C[C@H]1[C@@H]1C[C@H]1[C@@H]1C[C@H]1/C=C/C=C/C(=O)NC[C@H]1O[C@@H](N2CCC(=O)NC2=O)[C@H](O)[C@@H]1O
minimal effective concentration (Rhizopus delemar): 0.016 µg/mL
minimal effective concentration (Rhizopus arrhizus [19]): ≤ 0.008 µg/mL
minimal effective concentration (Lichtheimia corymbifera [20]): ≤ 0.008 µg/mL
minimal effective concentration (Mucor circinelloides [21]): 0.016 µg/mL
minimal effective concentration (Mucor indicus): ≤ 0.008 µg/mL

CCOC(=O)N1C/C(=C\c2ccc([N+](=O)[O-])cc2)C(=O)[C@@]2(C1)[C@H](c1ccc([N+](=O)[O-])cc1)CN(C)[C@]21C(=O)Nc2ccccc21
inhibition zone (IZ) [16]: 39.46 mm

CCOC(=O)N1C/C(=C\c2ccc(F)cc2)C(=O)[C@@]2(C1)[C@H](c1ccc(F)cc1)CN(C)[C@]21C(=O)Nc2ccccc21
inhibition zone (IZ) [16]: 39.46 mm

CCOC(=O)N1C/C(=C\c2ccc(F)c(F)c2)C(=O)[C@@]2(C1)[C@H](c1ccc(F)c(F)c1)CN(C)[C@]21C(=O)Nc2ccccc21
inhibition zone (IZ) [16]: 39.46 mm
